Reference: article PMC8079060 (Drug Delivery, 2021)
“And” between values parts separate entries of the source, which are not always exact repeats. Identical values can stand only once.

Experiments:
[1] = Plasma pharmacokinetics after intravenous administration; conditions: rats; for Tmax: i.v. NPPA-PTX NPs 6.04 mg kg^−1 (equimolar with 5.00 mg kg^−1 PTX) or Taxol 5.00 mg kg^−1; for Tmax / AUCINF_obs / AUClast / Cmax: plasma
Procedure: Post injection, ∼200 μL blood samples were drawn from the jugular vein at predetermined time points of 0.033, 0.083, 0.25, 0.5, 1, 2, 4, 6, 8, 12, and 24 h post-injection and centrifuged immediately at 3000 rpm for 10 min at 4 °C. […] 200 μL of deionized water was added into the 40 μL supernatants followed by vortexing for 1 min. Finally, the pharmacokinetic data analysis was performed via a liquid chromatography-tandem mass spectrometry (LC-MS/MS Applied Biosystems. Foster City, CA, USA) and pharmacokinetic parameters were acquired by Winnolin 7.0 software.

[2] = system: HCT116 cells; test: cells; conditions: Homo sapiens, HCT-116
Procedure: (§1) Dose-effect curves were constructed and IC50 values were calculated by GraphPad Prism6/SPSS Software.

[3] = system: MDA-MB-231 cells; test: cells; conditions: Homo sapiens
Procedure: as §1

[4] = Tissue distribution in MDA-MB-231 tumor-bearing nude mice
Procedure: Mice were sacrificed and the tumors and main organs were harvested at 1, 4, 8, and 24 h after administration. Each tissue sample was homogenized in 1 mL acetonitrile and centrifugated.

[5] = i.v. NPPA-PTX NPs 6.04 mg kg^−1 or Taxol 5.00 mg kg^−1, mean ± SEM, n = 3

Structure (SMILES) | Tmax ([1]; mean ± SEM, n = 3) | Cl_obs [1, 5] | HL_Lambda_z [1, 5] | MRTlast [1, 5] | Vz_obs (apparent distribution volume) [1, 5] | AUCINF_obs [1, 5] | AUClast [1, 5] | Cmax [1, 5] | other results
CC(=O)OC1C(=O)C2(C)C(O)CC3OCC3(OC(C)=O)C2C(OC(=O)c2ccccc2)C2(O)CC(OC(=O)C(O)C(NC(=O)c3ccccc3)c3ccccc3)C(C)=C1C2(C)C (centres unmarked) [PTX from Taxol] | 2 ± 0 min | 19.5 ± 6.63 mL/min/kg | 5.86 ± 1.24 h | 2.50 ± 0.545 h | 10,300 mL kg^−1 and 10,300 ± 5480 mL kg^−1 | 4560 ± 1310 ng·h/mL | 4480 ± 1310 ng·h/mL | 8600 ± 2500 ng/mL | –
CC(=O)O[C@H]1C(=O)[C@@]2(C)[C@H]([C@H](OC(=O)c3ccccc3)[C@]3(O)C[C@H](OC(=O)[C@H](O)[C@@H](NC(=O)c4ccccc4)c4ccccc4)C(C)=C1C3(C)C)[C@]1(OC(C)=O)CO[C@@H]1C[C@@H]2O [PTX, paclitaxel] | – | – | – | – | – | – | – | – | IC50 [2]: 300 ± 20 nM; IC50 [3]: 63 ± 3.3 nM
CC(=O)OC1C(=O)C2(C)C(O)CC3OCC3(OC(C)=O)C2C(OC(=O)c2ccccc2)C2(O)CC(OC(=O)C(O)C(NC(=O)c3ccccc3)c3ccccc3)C(C)=C1C2(C)C (centres unmarked) [PTX released from NPPA-PTX] | 2 ± 0 min | 127.5 ± 34.17 mL/min/kg | 9.53 ± 5.82 h | 7.38 ± 0.817 h | 93,700 ± 26,400 mL kg^−1 | 837 ± 264 ng·h/mL | 695 ± 99.6 ng·h/mL | 99.0 ± 29.2 ng/mL | MRT compared to that of PTX from Taxol ([1]; i.v.): 4 fold; Vz_obs (apparent distribution volume) ([1]; i.v. NPPA-PTX NPs 6.04 mg kg^−1 or Taxol 5.00 mg kg^−1, mean ± SEM, n = 3, listed as released PTX from NPPA-PTX): 93,700 mL kg^−1; AUC0–24h in plasma compared with PTX from Taxol ([4]; plasma): lower values (about three tenths); AUC0–24h in tumor compared with PTX from Taxol ([4]; tumor): equivalent values
CC(=O)OC1C(=O)C2(C)C(O)CC3OCC3(OC(C)=O)C2C(OC(=O)c2ccccc2)C2(O)CC(OC(=O)C(OC(=O)CCc3ccccc3[N+](=O)[O-])C(NC(=O)c3ccccc3)c3ccccc3)C(C)=C1C2(C)C (centres unmarked) [NPPA-PTX, 3-(2-nitrophenyl) propionic acid-paclitaxel] | 2 ± 0 min | 33.17 ± 16.4 mL/min/kg | 7.45 ± 0.915 h | 2.91 ± 0.280 h | 20,700 mL kg^−1 and 20,700 ± 9320 mL kg^−1 | 3930 ± 2710 ng·h/mL | 3810 ± 2640 ng·h/mL | 4580 ± 2140 ng/mL | MRTINF_obs (mean residence time) [1, 5]: 3.90 ± 0.656 h; AUC tissue/plasma ([4]; Heart): 0.65; AUC tissue/plasma ([4]; Kidney): 0.79; AUC tissue/plasma ([4]; Liver): 3.17; AUC tissue/plasma ([4]; Lung): 0.55; AUC tissue/plasma ([4]; Spleen): 0.35; AUC tissue/plasma ([4]; plasma): 1.00; AUC tissue/plasma ([4]; tumor): 0.45
